Read-outs that look alike come from different tables or passages of the source.
Test system: P. falciparum 3D7 gametocytes
Test: alamarBlue gametocyte viability assay, strain 3D7
Type: cell-based, Plasmodium falciparum
Settings: for Max Resp: DMSO set at 0%, 100 nM epoxomicin set at -100%; call rule not given here
[1] = Malaria Box, stages III-V 3D7 gametocytes
[2] = Malaria Box, stages III-V 3D7 gametocytes, 11 concentrations, 1:3 dilution
[3] = Malaria Box, stages III-V 3D7 gametocytes, 11 concentrations, 1:3 dilution, read-out: IC50

Structure (SMILES)	Max Resp (Malaria Box) [%]	Curve Class [1]	IC50 [2]	reduction of gametocyte viability (Malaria Box screen) [%]	IC50 [3] [µM]	IC50 (P. falciparum 3D7 gametocytes, mean of at least 3 independent experiments, read-out: Gametocyte IC50) [µM]
COc1ccccc1C(=O)ON=C(N)Cc1cccc2ccccc12 [MMV666686]	-50	-2.2	Inactive	–	–	–
CCC1(C)CC(CCNCc2ccccc2O)(c2ccc(C)cc2)CCO1 (centres unmarked) [MMV019406]	-82	-1.1	–	> 75	0.418	< 1
CCCc1c(C)nc2ccccc2c1O [MMV666081]	23	4	Inactive	–	–	–
O=C(CSc1ccc2nnc(-c3cccc(F)c3)n2n1)Nc1ccc2c(c1)OCO2 [MMV665918]	-14	4	Inactive	–	–	–
CCCCCCc1cc(O)c2c3c(c(=O)oc2c1)CCC(C)C3 (centres unmarked) [MMV665987]	0	4	Inactive	–	–	–
O=C(NC1CCN(Cc2ccccc2)CC1)c1cc(-c2ccncc2)nc2ccc(Cl)cc12 [MMV020275]	-48	-2.2	Inactive	–	–	–
COc1ccccc1N1CCN(C(CNS(=O)(=O)c2ccc(Cl)cc2)c2cccnc2)CC1 (centres unmarked) [MMV665914]	-63	-2.2	–	–	29.6	–
Cc1ccc(S(=O)(=O)c2c(COC(=O)c3cccc(C)c3)c(-c3ccccc3)nn2C)cc1 [MMV665936]	5	4	Inactive	–	–	–
Cl.Oc1ccccc1CNCC12CC3CC(CC(C3)C1)C2 [MMV020788]	-43	-1.2	–	–	0.105	–
CCN(CC)CCCNc1nc(-c2ccc(Cl)cc2)nc2ccccc12 [MMV665961]	-95	-2.1	–	–	16.6	–
CCOc1cc2c(cc1OCC)C(c1cc(C)c(O)c(C)c1)NCC2.Cl (centres unmarked) [MMV000483]	-82	-1.1	–	–	5.26	–
CCCCCCc1cc2cc(-c3csc(C=Cc4ccccc4)n3)c(=O)oc2cc1O [MMV666692]	-54	-2.2	–	–	29.6	–
CCn1c(CN2CCN(Cc3ccccc3)CC2)nc2cc(NC(=O)c3cccs3)ccc21 [MMV020439]	-25	4	Inactive	–	–	–
CC(C)c1ccc(CNCC(O)c2ccccc2)cc1.Cl (centres unmarked) [MMV001049]	-76	-1.2	–	–	2.35	–
Cc1ccc(C2CC(C(F)(F)F)n3nc(C(=O)N4CCN(C(c5ccccc5)c5ccccc5)CC4)cc3N2)cc1 (centres unmarked) [MMV000699]	-70	-2.2	–	–	29.6	–
Cc1ccccc1OCCSc1nc2ccc(NC(=O)c3ccccc3)cc2s1 [MMV007577]	18	4	Inactive	–	–	–
COc1ccc(C(=O)C(CCC(CNC(C)(C)C)C(=O)c2ccc(OC)cc2)CNC(C)(C)C)cc1 (centres unmarked) [MMV007591]	-109	-1.1	–	–	2.64	–
CCOc1ccc(CCNC(=O)c2cccs2)cc1OCC [MMV007978]	-13	4	Inactive	–	–	–
CCCC(c1nnnn1C1CCCCC1)N1CCN(C(=O)c2ccco2)CC1.Cl (centres unmarked) [MMV666093]	-10	4	Inactive	–	–	–
COc1ccc(CNC(=O)c2cc3c(=O)n4ccccc4nc3n(CCc3ccccc3)c2=N)cc1 [MMV665881]	-29	4	Inactive	–	–	–
CCOc1cc(CNC(C)C(O)c2ccccc2)cc(Cl)c1OCC (centres unmarked) [MMV396633]	-72	-2.2	–	–	11.8	–

Structure (SMILES)	Max Resp (Malaria Box) [%]	Curve Class [1]	IC50 [2]	reduction of gametocyte viability (Malaria Box screen) [%]	IC50 [3] [µM]	IC50 (P. falciparum 3D7 gametocytes, mean of at least 3 independent experiments, read-out: Gametocyte IC50) [µM]
O=C1c2ccc3c4c(ccc(c24)C(=O)N1CCCCO)C(=O)N(CCCCO)C3=O [MMV009085]	-71	-2.2	–	–	14.8	–
N#Cc1nc(Cc2cccc3ccccc23)oc1N1CCN(C(c2ccccc2)c2ccccc2)CC1 [MMV396726]	-1	4	Inactive	–	–	–
O=c1cc(NC2CCN(CCCc3ccccc3)CC2)c2cc(Cl)ccc2o1 [MMV665786]	-89	-2.1	–	–	14.8	–
Cc1ccc(CN2CCC(C(=O)Nc3ccc(-c4cc5ccccc5[nH]4)cc3)CC2)o1 [MMV666071]	-71	-2.2	–	–	29.6	–
CCN(CC)c1cc(C)c2cc(NC(=O)c3cccc(OC)c3)ccc2n1 [MMV000498]	-20	4	Inactive	–	–	–
CCc1ccc(Nc2cc(C)nc3nc(C)nn23)cc1 [MMV007374]	-9	4	Inactive	–	–	–
CCOC(=O)c1c(NC(=O)c2ccccc2)sc2c(O)c(CN(CC)CC)ccc12 [MMV665831]	-58	-2.2	–	–	7.43	–
Oc1ccc2ccccc2c1CNc1nc2ccccc2[nH]1 [MMV011832]	-67	-2.2	–	–	29.6	–
CC(C)(C)CC(C)(C)NCC(O)COc1ccc2c(c1)CCC2.Cl (centres unmarked) [MMV665817]	-107	-2.1	–	–	9.35	–
O=C(Nc1ccc(CN2CCOCC2)cc1)c1ccc(-c2cc(Cl)ccc2Cl)o1 [MMV020651]	-23	4	Inactive	–	–	–
CCOC(=O)c1c[nH]c2ccc(CC)cc2c1=O [MMV007116]	32	4	Inactive	–	–	–
CCOC(=O)c1cnc2ccc(OC)cc2c1Nc1ccc(N2CCN(C)CC2)cc1 [MMV000704]	-69	-2.2	–	–	23.5	–
Cc1[nH]c(-c2ccc(F)cc2)cc1C(=O)NC1CCN(Cc2ccccc2)CC1 [MMV019738]	-61	-2.2	–	–	29.6	–
CCOc1c(Cl)cc(CNCC(O)c2ccccc2)cc1OC (centres unmarked) [MMV396632]	-76	-2.2	–	–	9.35	–
Cc1ccc(OCCCCCCNCCO)c(C)c1 [MMV666020]	-64	-2.2	–	–	37.2	–
COc1ccc(N2CCN(C(CNC(=O)CC(C)(C)C)c3ccc4c(c3)OCO4)CC2)cc1 (centres unmarked) [MMV665908]	-26	4	Inactive	–	–	–
COc1ccc(C2NCCc3c2[nH]c2ccccc32)cc1CN1CCN(c2ccc(F)cc2)CC1.Cl (centres unmarked) [MMV019690]	-89	-1.1	–	–	6.62	–
CCOc1ccc(N2C(N)=NC(N)=NC2(C)C)cc1.Cl [MMV667486]	-4	4	Inactive	–	–	–
COc1ccc(C(=O)NC(c2ccc(Cl)cc2Cl)c2cc(Cl)c3cccnc3c2O)cc1 (centres unmarked) [MMV666054]	-125	-2.1	–	–	16.6	–
CCOC(=O)C1=C(C)N=c2sc(=Cc3ccccc3O)c(=O)n2C1c1ccc(OC)c2ccccc12 (centres unmarked) [MMV666604]	-68	-1.2	–	–	7.43	–
Oc1ccc(Br)cc1CN1CCN(Cc2ccc(Cl)cc2)CC1 [MMV665809]	-58	-1.2	–	–	3.72	–
